IC50 and Kd data for 13 compounds are collected here from ChEMBL document CHEMBL5230094, “Structure-activity relationships of Wee1 inhibitors: A review” (Eur J Med Chem, 2020).

Each structure is given as a SMILES string. pIC50, pKd: −log10 of the molar value. Where only a bound is given, the exact number is not on record here.

Assay [1] concerns the target Proto-oncogene tyrosine-protein kinase Src (Homo sapiens, UniProt P12931). Nature of the assay: Inhibition of c-Src (unknown origin).
For assay [2], the target named is T1, Wee1-like protein kinase (Homo sapiens, UniProt P30291). As to the kind of experiment: Binding affinity to Wee1 (unknown origin) assessed as dissociation constant.
T1 sequence (P30291 whole entry): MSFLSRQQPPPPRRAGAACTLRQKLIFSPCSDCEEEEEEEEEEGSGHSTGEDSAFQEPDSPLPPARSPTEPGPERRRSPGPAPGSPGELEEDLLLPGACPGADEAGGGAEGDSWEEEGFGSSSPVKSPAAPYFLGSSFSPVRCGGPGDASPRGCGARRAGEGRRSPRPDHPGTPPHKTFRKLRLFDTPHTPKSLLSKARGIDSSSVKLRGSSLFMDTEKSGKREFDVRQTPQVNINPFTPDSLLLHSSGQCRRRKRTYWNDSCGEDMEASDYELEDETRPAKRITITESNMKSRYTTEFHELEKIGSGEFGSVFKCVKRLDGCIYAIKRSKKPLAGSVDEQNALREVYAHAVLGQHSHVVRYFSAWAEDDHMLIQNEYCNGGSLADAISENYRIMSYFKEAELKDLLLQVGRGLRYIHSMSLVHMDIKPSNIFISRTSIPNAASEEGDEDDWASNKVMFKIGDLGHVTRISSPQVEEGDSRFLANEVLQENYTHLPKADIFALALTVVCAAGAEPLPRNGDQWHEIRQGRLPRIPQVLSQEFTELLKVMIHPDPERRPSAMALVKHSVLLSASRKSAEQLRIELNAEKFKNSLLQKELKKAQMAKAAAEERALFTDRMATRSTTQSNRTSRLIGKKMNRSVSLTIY
Assay [3] addresses T1, Wee1-like protein kinase. As to the kind of experiment: Inhibition of recombinant Wee1 (unknown origin) incubated for 1 hr by TR-FRET assay. Background: TR-FRET usually uses a lanthanide donor and a delayed reading to cut background.
A further assay has as its system A549. As to the kind of experiment: Antiproliferative activity against human A549 cells by MTS based Cell Titer 96 viability assay. Format: functional.
Assay [4] addresses T1, Wee1-like protein kinase. As to the kind of experiment: Inhibition of human full length N-terminal GST tagged Wee1 expressed in E coli.
In assay [5] the target is T1, Wee1-like protein kinase. Nature of the assay: Inhibition of recombinant Wee1 (unknown origin) by TR-FRET assay.
For the next assay, the system named is MDA-MB-231. As to the kind of experiment: Antiproliferative activity against human MDA-MB-231 cells.
Assay [6] deals with T2, Serine/threonine-protein kinase Chk1 (Homo sapiens, UniProt O14757).
T2 sequence (O14757 whole entry): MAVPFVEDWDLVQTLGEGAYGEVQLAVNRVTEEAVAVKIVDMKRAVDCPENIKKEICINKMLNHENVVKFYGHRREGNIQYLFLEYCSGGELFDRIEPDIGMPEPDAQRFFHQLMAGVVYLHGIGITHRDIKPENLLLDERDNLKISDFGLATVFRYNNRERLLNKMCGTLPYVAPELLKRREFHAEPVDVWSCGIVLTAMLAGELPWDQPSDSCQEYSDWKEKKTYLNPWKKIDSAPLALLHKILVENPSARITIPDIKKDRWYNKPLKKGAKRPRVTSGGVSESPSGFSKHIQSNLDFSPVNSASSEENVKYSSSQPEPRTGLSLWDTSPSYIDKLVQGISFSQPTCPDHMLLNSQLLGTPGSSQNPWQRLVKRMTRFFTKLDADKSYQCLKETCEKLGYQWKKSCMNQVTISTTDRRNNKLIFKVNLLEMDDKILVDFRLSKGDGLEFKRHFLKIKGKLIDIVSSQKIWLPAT
As to the kind of experiment: Inhibition of CHK1 (unknown origin).

Proto-oncogene tyrosine-protein kinase Src, sequence (P12931 2-536 limits assumed): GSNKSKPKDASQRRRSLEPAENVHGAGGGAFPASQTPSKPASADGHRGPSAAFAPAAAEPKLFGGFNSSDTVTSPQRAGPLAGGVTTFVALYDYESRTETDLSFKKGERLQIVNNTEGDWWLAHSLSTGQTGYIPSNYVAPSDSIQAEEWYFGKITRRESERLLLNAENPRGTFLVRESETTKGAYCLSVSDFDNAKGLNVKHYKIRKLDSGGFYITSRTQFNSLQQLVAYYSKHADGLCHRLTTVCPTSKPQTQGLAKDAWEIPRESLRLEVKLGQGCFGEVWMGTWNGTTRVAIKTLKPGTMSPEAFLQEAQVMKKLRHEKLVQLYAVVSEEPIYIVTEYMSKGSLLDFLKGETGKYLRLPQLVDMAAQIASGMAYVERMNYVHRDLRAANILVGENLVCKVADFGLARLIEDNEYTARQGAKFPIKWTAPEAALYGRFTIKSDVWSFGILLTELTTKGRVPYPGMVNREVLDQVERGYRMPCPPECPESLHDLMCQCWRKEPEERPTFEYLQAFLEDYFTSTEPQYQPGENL

The term pIC50 denotes −log10 of the IC50, conventionally taken in molar units. On to `Cn1c(=O)c(-c2c(Cl)cccc2Cl)cc2cnc(Nc3ccc(CC(N)=O)cc3)nc21`, for which the pIC50 in assay [1] was 7.89. `CCN(CC)CCOc1ccc(Nc2ncc3c(C)c(-c4c(C)cccc4C)c(=O)n(C)c3n2)cc1` had a pIC50 in assay [1] of 6.44. Same read-out and setting: the figure for `CCN(CC)CCOc1ccc(Nc2ncc3c(C)c(-c4ccccc4Cl)c(=O)n(C)c3n2)cc1` is less than 4.30; for `CCN(CC)CCOc1ccc(Nc2ncc3cc(-c4c(C)cccc4C)c(=O)n(C)c3n2)cc1` it is 7.64.

With `Cn1c(=O)c(-c2c(Cl)cccc2Cl)cc2cnc(Nc3ccc(OCCCC(=O)O)cc3)nc21`, the pIC50 in assay [1] was 8.40. The compound `Cc1cccc(C)c1-c1cc2cnc(Nc3ccccc3)nc2n(C)c1=O` gave a pIC50 in assay [1] of 7.85.

`Cn1c(=O)c(-c2c(Cl)ccc(O)c2Cl)cc2cnc(Nc3ccc(OCCCC(=O)O)cc3)nc21` showed a pIC50 in assay [1] of 7.00.

The term pKd denotes the negative decadic logarithm of the Kd, by convention in mol/L. Consider `CC(=O)NCC(=O)N1[C@@H]2CC[C@H]1c1cc(Nc3ncc(C(F)(F)F)c(NC4CCC4)n3)ccc12`, for which the pKd on Wee1-like protein kinase [2] was 7.10. `C=CCn1c(=O)c2cnc(Nc3ccc(N4CCN(C(=O)OC)CC4)cc3)nc2n1-c1cccc(C(C)(C)O)n1`: the pIC50 on Wee1-like protein kinase [3] was 7.56. As to `CCOC(=O)N1CCc2c(sc3nc(SCC(=O)c4ccccc4)n(N)c(=O)c23)C1`, the pIC50 was 4.75 with A549 and 4.65 against Wee1-like protein kinase [4]. For `C=CCn1c(=O)c2cnc(Nc3ccc(CCN(C)C)cc3)nc2n1-c1cccc(C(C)(C)O)n1`, the pIC50 on Wee1-like protein kinase [5] was 8.77. In the case of `COc1cc(Nc2c(C#N)cnc3cc(OCCCN4CCN(C)CC4)c(OC)cc23)c(Cl)cc1Cl` [BOSUTINIB], in the assay with MDA-MB-231, the pIC50 was 5.74.

On to `CCN(CC)CCOc1ccc(Nc2ncc3cc(-c4c(Cl)cccc4Cl)c(=O)n(C)c3n2)cc1` [PD-0166285], for which, in assay [6], the pIC50 is 7.14.
